Data on four compounds can be found in patent publication US20260250519A1, “Copper Containing Compounds and Compositions for Antimicrobial Paint and Coating” (ARXADA, LLC, priority 2022, published 2026).

“Also recorded” adds a separate entry of the source. Bounds are passed on as bounds.

The nature of data set [1]: Compatibility of copper compounds in flat wall paint, visual assessment of dry film for grits. Format: physicochemical. The conditions noted are these: 600 ppm Cu in acrylic flat wall paint; dry film inspected for grits. The procedure: The compatibilities of copper compounds in paint were evaluated via visual assessment of dry film appearance of a flat wall paint (50% PVC, 35% Solid Vol, 45 g/L VOC, Table 1).

The test system of data set [2] is Aspergillus niger (ATCC 6275), Aureobasidium pullulans (ATCC 9348) and Penicillium citrinum (ATCC 9849). Briefly: ASTM resistance to growth of mold on interior coatings in an environmental chamber. Format: cell-based. The conditions noted are these: for Avg Rating: 4 weeks in chamber; for antifungal test pass/fail: Pass = rating 8-10 (Table 9). The procedure: Two coatings were brushed onto both faces and all edges of wood panel (allowing 1 day between coats). The resulting coated panels were dried at 23±2° C. and 50±5% relative humidity for 4 days. […] In the environmental chamber, the dried coated panels were hung vertically with the bottom approximately 3 inch above the surface of the inoculated soil and with sufficient spacing to allow free circulation of air and to prevent contact between panels or with wall surfaces. […] The degrees of fungal contamination were assessed using the rating scale in Table 9.

The test system of data set [3] is Pseudomonas aeruginosa (ATCC 15442). Briefly: Interim EPA method for antimicrobial surface coatings, flat wall paint. The conditions noted are these: 1670 ppm in flat wall paint. Format: cell-based. As to the method:
(§1) The antibacterial efficacies of copper-containing composition in dry paint film were evaluated using an interim EPA method (Interim Method for Evaluating the Efficacy of Antimicrobial Surface Coatings: Oct. 2, 2020). In brief, μBCC dispersion was added into a flat wall paint (38% Solid Vol, <50 g/L VOC) for target Cu level. The paints were drawn-down onto the sterilized steel substrate (1 inch by 1 inch of AISI type 304 stainless steel). The resulting coated substrate was dried at ambient condition for at least 24 hours. Each of two (2) bacterial inoculum ([…]): Staphylococcus aureus (ATCC 6538) and Pseudomonas aeruginosa (ATCC 15442) was used to inoculate the dry film of test paint to achieve 10^4 to 10^5 cfm/carrier of each bacteria on dry surface of each test paint. The test paints were incubated at 22° C. and 30-40% RH for 2 hours. The degrees of bacterial contamination were determined via viable cell count for antibacterial efficacy relative to the uncoated substrate.

Data set [4] concerns Staphylococcus aureus (ATCC 6538). Described as above. The conditions noted are these: Cu 1670 ppm in flat wall paint. Format: cell-based. The procedure: as §1
The subject of data set [5] is Pseudomonas aeruginosa (ATCC 15442). The data set is described as follows: Modified JIS Z2801 antibacterial efficacy in dry paint film (μBCC, ZnO). The conditions noted are these: ZnO 0 ppm in flat wall paint; for 2 hr Contact Time % ↓ / 2 hr Contact Time Log10 ↓: relative to blank paint. Format: cell-based. As to the method:
(§2) In brief, μBCC dispersion and optional ZnO dispersion (25 wt %) were added into a flat wall paint (50% PVC, 35% Solid Vol, 45 g/L VOC, Table 1) for target Cu and ZnO level, respectively. The paints were brushed onto the sterilized plastic filter paper. Each side of the filter paper was painted twice and the resulting coated paper was dried at ambient condition for 3 days. The dried coatings were then leached against 10 L water for 24 hours (4 water changes for the first 8 hour). Each of three (3) bacterial inoculum (0.4 mL): Escherichia coli (ATCC 8739), Staphylococcus aureus (ATCC 6538), Pseudomonas aeruginosa (ATCC 15442) was used to inoculate the dry film (40 mm×40 mm) of test paint to achieve 1.0 to 4.0×10^5 cfm/mL of inoculum concentration per each bacteria on dry surface of each test paint. The test paints were incubated at 35±1° C. and 90% relative humidity (RH) for 2 hour. The degrees of bacterial contamination of all samples were determined relative to blank paint via viable cell count of bacteria by agar plate culture method.

Data set [6] deals with Staphylococcus aureus (ATCC 6538). Described as above. Format: cell-based. The conditions noted are these: ZnO 0 ppm in flat wall paint; for 2 hr Contact Time % ↓ / 2 hr Contact Time Log10 ↓: relative to blank paint. The procedure:
as §2

For data set [7], the system named is Escherichia coli (ATCC 8739). Described as above. Format: cell-based. The note with it: ZnO 0 ppm in flat wall paint; for 2 hr Contact Time % ↓ / 2 hr Contact Time Log10 ↓: relative to blank paint. As to the method: as §2
[8] abbreviates: no Cu additive, Quat level 2000 ppm.

For `O=S(=O)([O-])[O-].[Cu+2]` [CuSO4, copper sulfate, reference compound], in data set [1], the “Compatibilities of Copper Compounds in Paint” value is “Incompatible (many grits)”.
Take `CCCCCCCCCCCCN(C)C` [Lauryl Dimethyl Amine, reference compound]: the “Avg Rating” value in data set [2] (setting [8]) is 2.7.
For the compound `O=C([O-])[O-].[Cu+2].[Cu+2].[OH-].[OH-]` [μBCC, Micronized basic copper carbonate], the “2 hr Contact Time Avg” value was 1.0E+00 in data set [3]; 6.6E+01 in data set [4]; 1.2E+03 in data set [5] (Cu 165 ppm); 1.3E+03 in data set [5] (Cu 330 ppm); under 4.7E+01 in data set [5] (Cu 824 ppm); 2.7E+01 in data set [5] (Cu 1650 ppm). Besides, the “2 hr Contact Time Avg” value in data set [6] (Cu 165 ppm) is on record as 6.3E+01; in data set [6] (Cu 330 ppm), under 2.0E+01; in data set [6] (Cu 824 ppm) it was under 4.0E+01; in data set [6] (Cu 1650 ppm), under 1.0E+01; in data set [7] (Cu 165 ppm) it was under 5.7E+01; in data set [7] (Cu 330 ppm), under 1.0E+01. In addition, the “2 hr Contact Time Avg” value in data set [7] (Cu 824 ppm) is listed as under 4.0E+01; in data set [7] (Cu 1650 ppm) it was under 1.0E+01. In addition, the “2 hr Contact Time Log10” value in data set [3] is reported as 0.00; in data set [4], 1.82; in data set [5] (Cu 165 ppm) it was 3.08; in data set [5] (Cu 330 ppm), 3.13; in data set [5] (Cu 824 ppm), under 1.67; in data set [5] (Cu 1650 ppm), 1.43. For the same compound, the “2 hr Contact Time Log10” value is given as 1.80 in data set [6] (Cu 165 ppm); under 1.30 in data set [6] (Cu 330 ppm); under 1.60 in data set [6] (Cu 824 ppm); under 1.00 in data set [6] (Cu 1650 ppm); under 1.75 in data set [7] (Cu 165 ppm); under 1.00 in data set [7] (Cu 330 ppm). The “2 hr Contact Time Log10” value in data set [7] (Cu 824 ppm) is recorded as under 1.60; in data set [7] (Cu 1650 ppm), under 1.00. Further, the “2 hr Contact Time % ↓” value is given as 99.9964% in data set [3] (relative to uncoated substrate); 99.9287% in data set [4] (relative to uncoated substrate); 93.632% in data set [5] (Cu 165 ppm); 92.912% in data set [5] (Cu 330 ppm); at least 99.754% in data set [5] (Cu 824 ppm); 99.860% in data set [5] (Cu 1650 ppm). Moreover, the “2 hr Contact Time % ↓” value is reported as 99.936% in data set [6] (Cu 165 ppm); at least 99.980% in data set [6] (Cu 330 ppm); at least 99.960% in data set [6] (Cu 824 ppm); at least 99.990% in data set [6] (Cu 1650 ppm); at least 99.920% in data set [7] (Cu 165 ppm); at least 99.986% in data set [7] (Cu 330 ppm). Further, the “2 hr Contact Time % ↓” value in data set [7] (Cu 824 ppm) was at least 99.944%; in data set [7] (Cu 1650 ppm) it was at least 99.986%. The “2 hr Contact Time Log10 ↓” value was 4.45 in data set [3] (relative to uncoated substrate); 3.15 in data set [4] (relative to uncoated substrate); 1.20 in data set [5] (Cu 165 ppm); 1.15 in data set [5] (Cu 330 ppm); at least 2.61 in data set [5] (Cu 824 ppm); 2.85 in data set [5] (Cu 1650 ppm). The “2 hr Contact Time Log10 ↓” value in data set [6] (Cu 165 ppm) is 3.20; in data set [6] (Cu 330 ppm), at least 3.70; in data set [6] (Cu 824 ppm), at least 3.40; in data set [6] (Cu 1650 ppm), at least 4.00; in data set [7] (Cu 165 ppm), at least 3.10; in data set [7] (Cu 330 ppm), at least 3.85. In addition, the results for the “2 hr Contact Time Log10 ↓” value in data set [7] (Cu 824 ppm) and in data set [7] (Cu 1650 ppm) were at least 3.25 and at least 3.85, respectively. For the same compound, the “Compatibilities of Copper Compounds in Paint” value in data set [1] is listed as “compatible; also recorded: Compatible (no grits)”. Also, the results for the antifungal test pass/fail result in data set [2] (167 ppm Cu) and in data set [2] (333 ppm Cu) were “fails” and “passes”, respectively. The “Avg Rating” value in data set [2] (Cu level 167 ppm, no Quat) is on record as 7.7; in data set [2] (Cu level 333 ppm, no Quat) it was 9.3.
On to “N,N-Didecyl-N,N-dimethylammonium carbonate/bicarbonate [reference compound]”, for which, in data set [2] (setting [8]), the “Avg Rating” value amounted to 3.3.
